Data reported in patent US10906873B2, “Substituted cyclic amides as herbicides” (FMC Corporation, priority 2015, dated 2021).

system: barnyardgrass (Echinochloa crus-galli); test: Test A preemergence, barnyardgrass; format: in vivo; conditions: 125 g ai/ha, 0 to 100 scale
How it was run: (§1)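 Pre: seeds planted in loam/sand, directed soil spray. Post: 2–10 cm plants, 1–2 leaf. Formulation: non-phytotoxic solvent + surfactant. Greenhouse ~10 d; visual injury vs untreated, 0 = no effect, 100 = complete control.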

Structure (SMILES)	Plant response rating, Barnyardgrass
O=C1NCC(C#Cc2cccc(Cl)c2)C1C(=O)Nc1ccc(F)c(F)c1F (stereo not drawn) [Compound 26]	0

same assay, conditions: 500 g ai/ha, 0 to 100 scale

Structure (SMILES)	Plant response rating, Barnyardgrass
O=C1NCC(C#Cc2cccc(Cl)c2)C1C(=O)Nc1ccc(F)c(F)c1F (stereo not drawn) [Compound 26]	70

system: kochia (Kochia scoparia); test: Test A preemergence, kochia; format: in vivo; conditions: 125 g ai/ha, 0 to 100 scale
How it was run: as §1

Structure (SMILES)	Plant response rating, Kochia
O=C1NCC(C#Cc2cccc(Cl)c2)C1C(=O)Nc1ccc(F)c(F)c1F (stereo not drawn) [Compound 26]	0

same assay, conditions: 500 g ai/ha, 0 to 100 scale

Structure (SMILES)	Plant response rating, Kochia
O=C1NCC(C#Cc2cccc(Cl)c2)C1C(=O)Nc1ccc(F)c(F)c1F (stereo not drawn) [Compound 26]	0

system: ragweed (common ragweed, Ambrosia elatior); test: Test A preemergence, ragweed; format: in vivo; conditions: 125 g ai/ha, 0 to 100 scale
How it was run: as §1

Structure (SMILES)	Plant response rating, Ragweed
O=C1NCC(C#Cc2cccc(Cl)c2)C1C(=O)Nc1ccc(F)c(F)c1F (stereo not drawn) [Compound 26]	0

same assay, conditions: 500 g ai/ha, 0 to 100 scale

Structure (SMILES)	Plant response rating, Ragweed
O=C1NCC(C#Cc2cccc(Cl)c2)C1C(=O)Nc1ccc(F)c(F)c1F (stereo not drawn) [Compound 26]	0

system: ryegrass, It. (Italian ryegrass, Lolium multiflorum); test: Test A preemergence, ryegrass, It.; format: in vivo; conditions: 125 g ai/ha, 0 to 100 scale
How it was run: as §1

Structure (SMILES)	Plant response rating, Ryegrass, It.
O=C1NCC(C#Cc2cccc(Cl)c2)C1C(=O)Nc1ccc(F)c(F)c1F (stereo not drawn) [Compound 26]	0

same assay, conditions: 500 g ai/ha, 0 to 100 scale

Structure (SMILES)	Plant response rating, Ryegrass, It.
O=C1NCC(C#Cc2cccc(Cl)c2)C1C(=O)Nc1ccc(F)c(F)c1F (stereo not drawn) [Compound 26]	0

system: foxtail, giant (giant foxtail, Setaria faberii); test: Test A preemergence, foxtail, giant; format: in vivo; conditions: 125 g ai/ha, 0 to 100 scale
How it was run: as §1

Structure (SMILES)	Plant response rating, Foxtail, Giant
O=C1NCC(C#Cc2cccc(Cl)c2)C1C(=O)Nc1ccc(F)c(F)c1F (stereo not drawn) [Compound 26]	0

same assay, conditions: 500 g ai/ha, 0 to 100 scale

Structure (SMILES)	Plant response rating, Foxtail, Giant
O=C1NCC(C#Cc2cccc(Cl)c2)C1C(=O)Nc1ccc(F)c(F)c1F (stereo not drawn) [Compound 26]	70

system: pigweed (Amaranthus retroflexus); test: Test A preemergence, pigweed; format: in vivo; conditions: 125 g ai/ha, 0 to 100 scale
How it was run: as §1

Structure (SMILES)	Plant response rating, Pigweed
O=C1NCC(C#Cc2cccc(Cl)c2)C1C(=O)Nc1ccc(F)c(F)c1F (stereo not drawn) [Compound 26]	0

same assay, conditions: 500 g ai/ha, 0 to 100 scale

Structure (SMILES)	Plant response rating, Pigweed
O=C1NCC(C#Cc2cccc(Cl)c2)C1C(=O)Nc1ccc(F)c(F)c1F (stereo not drawn) [Compound 26]	40

system: barnyardgrass (Echinochloa crus-galli); test: Test A postemergence, barnyardgrass; format: in vivo; conditions: 125 g ai/ha, 0 to 100 scale
How it was run: as §1

Structure (SMILES)	Plant response rating, Barnyardgrass
O=C1NCC(C#Cc2cccc(Cl)c2)C1C(=O)Nc1ccc(F)c(F)c1F (stereo not drawn) [Compound 26]	0

same assay, conditions: 500 g ai/ha, 0 to 100 scale

Structure (SMILES)	Plant response rating, Barnyardgrass
O=C1NCC(C#Cc2cccc(Cl)c2)C1C(=O)Nc1ccc(F)c(F)c1F (stereo not drawn) [Compound 26]	60

system: kochia (Kochia scoparia); test: Test A postemergence, kochia; format: in vivo; conditions: 125 g ai/ha, 0 to 100 scale
How it was run: as §1

Structure (SMILES)	Plant response rating, Kochia
O=C1NCC(C#Cc2cccc(Cl)c2)C1C(=O)Nc1ccc(F)c(F)c1F (stereo not drawn) [Compound 26]	0

same assay, conditions: 500 g ai/ha, 0 to 100 scale

Structure (SMILES)	Plant response rating, Kochia
O=C1NCC(C#Cc2cccc(Cl)c2)C1C(=O)Nc1ccc(F)c(F)c1F (stereo not drawn) [Compound 26]	0

system: ragweed (common ragweed, Ambrosia elatior); test: Test A postemergence, ragweed; format: in vivo; conditions: 125 g ai/ha, 0 to 100 scale
How it was run: as §1

Structure (SMILES)	Plant response rating, Ragweed
O=C1NCC(C#Cc2cccc(Cl)c2)C1C(=O)Nc1ccc(F)c(F)c1F (stereo not drawn) [Compound 26]	0

same assay, conditions: 500 g ai/ha, 0 to 100 scale

Structure (SMILES)	Plant response rating, Ragweed
O=C1NCC(C#Cc2cccc(Cl)c2)C1C(=O)Nc1ccc(F)c(F)c1F (stereo not drawn) [Compound 26]	0

system: ryegrass, It. (Italian ryegrass, Lolium multiflorum); test: Test A postemergence, ryegrass, It.; format: in vivo; conditions: 125 g ai/ha, 0 to 100 scale
How it was run: as §1

Structure (SMILES)	Plant response rating, Ryegrass, It.
O=C1NCC(C#Cc2cccc(Cl)c2)C1C(=O)Nc1ccc(F)c(F)c1F (stereo not drawn) [Compound 26]	0

same assay, conditions: 500 g ai/ha, 0 to 100 scale

Structure (SMILES)	Plant response rating, Ryegrass, It.
O=C1NCC(C#Cc2cccc(Cl)c2)C1C(=O)Nc1ccc(F)c(F)c1F (stereo not drawn) [Compound 26]	0

system: foxtail, giant (giant foxtail, Setaria faberii); test: Test A postemergence, foxtail, giant; format: in vivo; conditions: 125 g ai/ha, 0 to 100 scale
How it was run: as §1

Structure (SMILES)	Plant response rating, Foxtail, Giant
O=C1NCC(C#Cc2cccc(Cl)c2)C1C(=O)Nc1ccc(F)c(F)c1F (stereo not drawn) [Compound 26]	0

same assay, conditions: 500 g ai/ha, 0 to 100 scale

Structure (SMILES)	Plant response rating, Foxtail, Giant
O=C1NCC(C#Cc2cccc(Cl)c2)C1C(=O)Nc1ccc(F)c(F)c1F (stereo not drawn) [Compound 26]	40

system: wheat (Triticum aestivum); test: Test A postemergence, wheat; format: in vivo; conditions: 125 g ai/ha, 0 to 100 scale
How it was run: as §1

Structure (SMILES)	Plant response rating, Wheat
O=C1NCC(C#Cc2cccc(Cl)c2)C1C(=O)Nc1ccc(F)c(F)c1F (stereo not drawn) [Compound 26]	0

same assay, conditions: 500 g ai/ha, 0 to 100 scale

Structure (SMILES)	Plant response rating, Wheat
O=C1NCC(C#Cc2cccc(Cl)c2)C1C(=O)Nc1ccc(F)c(F)c1F (stereo not drawn) [Compound 26]	0

system: corn (Zea mays); test: Test A postemergence, corn; format: in vivo; conditions: 125 g ai/ha, 0 to 100 scale
How it was run: as §1

Structure (SMILES)	Plant response rating, Corn
O=C1NCC(C#Cc2cccc(Cl)c2)C1C(=O)Nc1ccc(F)c(F)c1F (stereo not drawn) [Compound 26]	0

same assay, conditions: 500 g ai/ha, 0 to 100 scale

Structure (SMILES)	Plant response rating, Corn
O=C1NCC(C#Cc2cccc(Cl)c2)C1C(=O)Nc1ccc(F)c(F)c1F (stereo not drawn) [Compound 26]	0

system: pigweed (Amaranthus retroflexus); test: Test A postemergence, pigweed; format: in vivo; conditions: 125 g ai/ha, 0 to 100 scale
How it was run: as §1

Structure (SMILES)	Plant response rating, Pigweed
O=C1NCC(C#Cc2cccc(Cl)c2)C1C(=O)Nc1ccc(F)c(F)c1F (stereo not drawn) [Compound 26]	0

same assay, conditions: 500 g ai/ha, 0 to 100 scale

Structure (SMILES)	Plant response rating, Pigweed
O=C1NCC(C#Cc2cccc(Cl)c2)C1C(=O)Nc1ccc(F)c(F)c1F (stereo not drawn) [Compound 26]	0

system: blackgrass (Alopecurus myosuroides); test: Test A postemergence, blackgrass; format: in vivo; conditions: 125 g ai/ha, 0 to 100 scale
How it was run: as §1

Structure (SMILES)	Plant response rating, Blackgrass
O=C1NCC(C#Cc2cccc(Cl)c2)C1C(=O)Nc1ccc(F)c(F)c1F (stereo not drawn) [Compound 26]	0

same assay, conditions: 500 g ai/ha, 0 to 100 scale

Structure (SMILES)	Plant response rating, Blackgrass
O=C1NCC(C#Cc2cccc(Cl)c2)C1C(=O)Nc1ccc(F)c(F)c1F (stereo not drawn) [Compound 26]	0

system: galium (catchweed bedstraw, Galium aparine); test: Test A postemergence, galium; format: in vivo; conditions: 125 g ai/ha, 0 to 100 scale
How it was run: as §1

Structure (SMILES)	Plant response rating, Galium
O=C1NCC(C#Cc2cccc(Cl)c2)C1C(=O)Nc1ccc(F)c(F)c1F (stereo not drawn) [Compound 26]	0

same assay, conditions: 500 g ai/ha, 0 to 100 scale

Structure (SMILES)	Plant response rating, Galium
O=C1NCC(C#Cc2cccc(Cl)c2)C1C(=O)Nc1ccc(F)c(F)c1F (stereo not drawn) [Compound 26]	0

system: barnyardgrass (Echinochloa crus-galli); test: Test B flooded paddy test, barnyardgrass; format: in vivo; conditions: Flood, 250 g ai/ha; scale of 0 to 100 where 0 is no effect and 100 is complete control; 13 to 15 d
How it was run: (§2)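 Ratings use a 0-100 visual scale, where 100 is complete control, and compare treated plants with controls after 13 to 15 d of greenhouse growth. Compound went straight into paddy water kept 3 cm over the soil surface, applied to seedlings at the 2-leaf stage.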

Structure (SMILES)	Plant response rating, Barnyardgrass
O=C1NCC(C#Cc2cccc(Cl)c2)C1C(=O)Nc1ccc(F)c(F)c1F (stereo not drawn) [Compound 26]	0

system: ducksalad (Heteranthera limosa); test: Test B flooded paddy test, ducksalad; format: in vivo; conditions: Flood, 250 g ai/ha; scale of 0 to 100 where 0 is no effect and 100 is complete control; 13 to 15 d
How it was run: as §2

Structure (SMILES)	Plant response rating, Ducksalad
O=C1NCC(C#Cc2cccc(Cl)c2)C1C(=O)Nc1ccc(F)c(F)c1F (stereo not drawn) [Compound 26]	75

system: rice (Oryza sativa); test: Test B flooded paddy test, rice; format: in vivo; conditions: Flood, 250 g ai/ha; scale of 0 to 100 where 0 is no effect and 100 is complete control; 13 to 15 d
How it was run: as §2

Structure (SMILES)	Plant response rating, Rice
O=C1NCC(C#Cc2cccc(Cl)c2)C1C(=O)Nc1ccc(F)c(F)c1F (stereo not drawn) [Compound 26]	0

system: sedge, umbrella (small-flower umbrella sedge, Cyperus difformis); test: Test B flooded paddy test, sedge, umbrella; format: in vivo; conditions: Flood, 250 g ai/ha; scale of 0 to 100 where 0 is no effect and 100 is complete control; 13 to 15 d
How it was run: as §2

Structure (SMILES)	Plant response rating, Sedge, Umbrella
O=C1NCC(C#Cc2cccc(Cl)c2)C1C(=O)Nc1ccc(F)c(F)c1F (stereo not drawn) [Compound 26]	0
